As a reminder, the MIC is the lowest concentration that inhibits growth of the organism.

These results are taken from patent US11117915B2, “Antibacterial aminoglycoside analogs” (Cipla USA, Inc., priority 2007, dated 2021).

Converted amounts (≈) assume the structure as drawn. Read-outs that look alike come from different tables or passages of the source.

The test system of one test is P. aeruginosa ATCC 27853. The test can be described thus: MIC assay, CLSI broth microdilution, P. aeruginosa ATCC 27853 (APAE001). The format is cell-based. The settings on record: Pseudomonas aeruginosa, read-out: MIC APAE001. As for the experimental part:
(§1) Minimum inhibitory concentrations (MIC) were determined by reference Clinical and Laboratory Standards Institute (CLSI) broth microdilution methods per M7-A7 [2006]. Quality control ranges utilizing E. coli ATCC 25922, P. aeruginosa ATCC 27853 and S. aureus ATCC 29213, and interpretive criteria for comparator agents were as published in CLSI M100-S17 [2007]. Briefly, serial two-fold dilutions of the test compounds were prepared at 2× concentration in Mueller Hinton Broth. The compound dilutions were mixed in 96-well assay plates in a 1:1 ratio with bacterial inoculum. The inoculum was prepared by suspension of a colony from an agar plate that was prepared the previous day. Bacteria were suspended in sterile saline and added to each assay plate to obtain a final concentration of 5×10^5 CFU/mL. The plates were incubated at 35° C. for 20 hours in ambient air.
In general terms: Dilution methods test growth across graded concentrations, often in twofold steps.

For a further test, the system named is E. coli ATCC 25922. In words: MIC assay, CLSI broth microdilution, E. coli ATCC 25922 (AECO001). The format is cell-based. The settings on record: for MIC: Escherichia coli, read-out: MIC AECO001; for MIC AECO001: Table 3, E. coli ATCC25922. Here is the method: as §1
These MIC assays were conducted following the same protocol as set forth in Example 110. As shown, substituted sisomicin derivatives with groups other than methyl at the 6′-position have improved activity against strains expressing the AAC6′-modifying enzymes.

`CN[C@@H]1[C@@H](O)[C@@H](O[C@@H]2[C@@H](O)[C@H](O[C@H]3OC(CNCC(O)CO)=CC[C@H]3N)[C@@H](N)C[C@H]2NC(=O)[C@@H](O)CN)OC[C@]1(C)O` (stereo partly drawn) [Example 14, 6′-(2-Hydroxy-propanol)-1-(3-amino-2(S)-hydroxy-propionyl)-sisomicin]: the MIC was 1 to 16 µg/mL (≈ 1.64 to 26.3 µM) in the test with P. aeruginosa ATCC 27853 (ATCC27853, 20 h) and 1 to 16 µg/mL (≈ 1.64 to 26.3 µM) in the test with E. coli ATCC 25922 (ATCC25922, 20 h). As to `CN[C@@H]1[C@@H](O)[C@@H](O[C@@H]2[C@@H](O)[C@H](O[C@H]3OC(CNCC4CC4)=CC[C@H]3N)[C@@H](N)C[C@H]2NC(=O)[C@@H](O)CCN)OC[C@]1(C)O` [Example 18, 6′-(Methyl-cyclopropyl)-1-(4-amino-2(S)-hydroxy-butyryl)-sisomicin], the minimum inhibitory concentration (MIC) in the test on P. aeruginosa ATCC 27853 (APAE001 is ATCC27853, 35° C., 20 hours) was 1 to 16 µg/mL (≈ 1.66 to 26.5 µM); with E. coli ATCC 25922 (AECO001 is ATCC25922, 35° C., 20 hours), under 1 µg/mL. The MIC AECO001 with E. coli ATCC 25922 was determined as 1 µg/mL (≈ 1.66 µM). For the compound `CN[C@@H]1[C@@H](O)[C@@H](O[C@@H]2[C@@H](O)[C@H](O[C@H]3OC(CNCC(O)CO)=CC[C@H]3N)[C@@H](N)C[C@H]2NC(=O)[C@@H](O)CCN)OC[C@]1(C)O` (stereo partly drawn) [Example 19, 6′-(2-Hydroxy-propanol)-1-(4-amino-2(S)-hydroxy-butyryl)-sisomicin], the MIC with P. aeruginosa ATCC 27853 (ATCC27853, 20 h) is 1 to 16 µg/mL (≈ 1.61 to 25.7 µM); in the test on E. coli ATCC 25922 (ATCC25922, 20 h), under 1 µg/mL. On the same counts, the results for `CN[C@@H]1[C@@H](O)[C@@H](O[C@@H]2[C@@H](O)[C@H](O[C@H]3OC(CNC(=O)C(O)CN)=CC[C@H]3N)[C@@H](N)C[C@H]2NC(=O)[C@@H](O)CN)OC[C@]1(C)O` (stereo partly drawn) [Example 20, 6′-(3-Amino-2-hydroxy-propionyl)-1-(3-amino-2(S)-hydroxy-propionyl)-sisomicin] are over 16 µg/mL and over 16 µg/mL. Regarding `CN[C@@H]1[C@@H](O)[C@@H](O[C@@H]2[C@@H](O)[C@H](O[C@H]3OC(CNCC(O)C(N)=O)=CC[C@H]3N)[C@@H](N)C[C@H]2NC(=O)[C@@H](O)CN)OC[C@]1(C)O` (stereo partly drawn) [Example 21, 6′-(2-Hydroxy-3-propionamide)-1-(3-amino-2(S)-hydroxy-propionyl)-sisomicin], the minimum inhibitory concentration (MIC) in the test on P. aeruginosa ATCC 27853 (ATCC27853, 20 h) was 1 to 16 µg/mL (≈ 1.61 to 25.7 µM); in the test on E. coli ATCC 25922 (ATCC25922, 20 h) it was 1 to 16 µg/mL (≈ 1.61 to 25.7 µM).

Take `CN[C@@H]1[C@@H](O)[C@@H](O[C@@H]2[C@@H](O)[C@H](O[C@H]3OC(CNCC(O)CO)=CC[C@H]3N)[C@@H](N)C[C@H]2NC(=O)CO)OC[C@]1(C)O` (some centres unmarked) [Example 23, 6′-(2-Hydroxy-propanol)-1-(2-hydroxy-acetyl)-sisomicin]: the MIC with P. aeruginosa ATCC 27853 (ATCC27853, 20 h) was over 16 µg/mL; in the test on E. coli ATCC 25922 (ATCC25922, 20 h), over 16 µg/mL. For `CNCC1=CC[C@@H](N)[C@@H](O[C@H]2C(O)[C@@H](O[C@H]3OC[C@](C)(O)[C@H](NC)[C@H]3O)[C@H](N)C[C@@H]2N)O1` (some centres unmarked) [Mono-substituted Compound 1, reference compound], the MIC AECO001 with E. coli ATCC 25922 came out at 1 µg/mL (≈ 2.17 µM). For the compound `CN[C@@H]1[C@@H](O)[C@@H](O[C@@H]2C(O)[C@H](O[C@H]3OC(CNCC4CC4)=CC[C@H]3N)[C@@H](N)C[C@H]2N)OC[C@]1(C)O` (some centres unmarked) [Mono-substituted Compound 2, reference compound], in the test on E. coli ATCC 25922, the MIC AECO001 amounted to 1 µg/mL (≈ 1.99 µM). `CN[C@@H]1[C@@H](O)[C@@H](O[C@@H]2C(O)[C@H](O[C@H]3OC(CNCC4CCNCC4)=CC[C@H]3N)[C@@H](N)C[C@H]2N)OC[C@]1(C)O` (some centres unmarked) [Mono-substituted Compound 3, reference compound] displayed an MIC AECO001 in the test with E. coli ATCC 25922 of 0.5 µg/mL (≈ 0.918 µM). Same read-out and setting: in the case of `CN[C@@H]1[C@@H](O)[C@@H](O[C@@H]2C(O)[C@H](O[C@H]3OC(CNCCCN)=CC[C@H]3N)[C@@H](N)C[C@H]2N)OC[C@]1(C)O` (some centres unmarked) [Mono-substituted Compound 4, reference compound] it was 2 µg/mL (≈ 3.96 µM); in that of `CN[C@@H]1C(O)[C@@H](O[C@@H]2[C@@H](O)[C@H](OC3OC(CN)=CC[C@H]3N)[C@@H](N)C[C@H]2NC(=O)[C@@H](O)CN)OC[C@]1(C)O` (some centres unmarked) [Mono-substituted Compound 5, reference compound], 0.5 µg/mL (≈ 0.935 µM).

As to `CN[C@@H]1C(O)[C@@H](O[C@@H]2[C@@H](O)[C@H](OC3OC(CN)=CC[C@H]3N)[C@@H](N)C[C@H]2NC(=O)[C@@H](O)CCN)OC[C@]1(C)O` (some centres unmarked) [Mono-substituted Compound 6, reference compound], in the test on E. coli ATCC 25922, the MIC AECO001 came to 0.5 µg/mL (≈ 0.911 µM). On the same count and under the same terms, then `CN[C@@H]1C(O)[C@@H](O[C@@H]2[C@@H](O)[C@H](OC3OC(CN)=CC[C@H]3N)[C@@H](N)C[C@H]2NC(=O)C2(O)CNC2)OC[C@]1(C)O` (some centres unmarked) [Mono-substituted Compound 7, reference compound], with 1 µg/mL (≈ 1.83 µM).
